This assay has as its system MAGI-CCR5 cells, HIV-1 Ba-L, beta-gal luminescence, 48 h. Briefly: antiviral activity against R5 HIV-1 in MAGI cells – MAGI-CCR5 cells, HIV-1 Ba-L, 5% and 10% serum, set 2, dose response (AID 2788).
Where [1] appears, read: measured here: IC50 in 10% serum.

Molecules are shown by their SMILES. Active and inactive are the calls of the source.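 How the source made its calls: active means compound cutting the HIV-1 infection reporter signal by at least half at some tested dose; inactive means the rest.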

The IC50 is the point on the concentration scale where inhibition reaches its midpoint. As to `Cc1ccc(-n2c(O)c(C=Nc3ccccc3-c3n[nH]c(=S)[nH]c3=O)c3ccccc3c2=O)c(C)c1`, the IC50 is 18 µM. The compound also yielded an IC50 under setting [1] of 23 µM.
The matching figures for `CS(=O)(=O)C1=NSC2=NC(=O)/C(=C\c3ccc(OS(=O)(=O)c4ccccc4)cc3)C(=N)N21`: > 100 µM (inactive) and greater than 100 µM.
Turning to `COc1ccccc1NS(=O)(=O)c1cccc(-n2c(O)c(C=Nc3ccccc3C(=O)O)c3ccccc3c2=O)c1`, the IC50 was 49 µM. Besides, the IC50 under setting [1] was found to be 54.9 µM.
On the same counts, the results for `COc1ccc(C(=O)Oc2ccc(C=NNc3ccc(Cl)c(C(=O)O)c3)cc2OC)cc1` are 56.4 µM and 81.4 µM.
On the same counts, the results for `CS(=O)(=O)C1=NSC2=NC(=O)/C(=C\c3cccn3-c3ccc(Cl)cc3)C(=N)N21` are 63.8 µM and greater than 100 µM.
In the case of `COc1cc(C=NNc2ccc(Cl)c(C(=O)O)c2)ccc1OC(=O)c1ccc(F)cc1`, the IC50 is 96.5 µM. Under setting [1], this compound showed an IC50 greater than 100 µM.
As for `O=C1NC(=S)N(c2ccc(F)cc2)C(=O)/C1=C/c1ccco1`, the IC50 was 52.9 µM. In addition, the IC50 under setting [1] was found to be 48.7 µM.
On the same counts, the results for `CC(C)S(=O)(=O)C1=NSC2=NC(=O)/C(=C\c3ccc(-c4cccc(C(=O)O)c4)o3)C(=N)N21` are 45.6 µM and 50.5 µM.
The matching figures for `CC(C)S(=O)(=O)C1=NSC2=NC(=O)/C(=C\c3ccc(-c4ccccc4)o3)C(=N)N21`: 21.9 µM and 44 µM.
The matching figures for `Cc1cc(C)cc(-n2cccc2/C=C2/C(=N)N3C(=NC2=O)SN=C3S(C)(=O)=O)c1`: 45.8 µM and 55.6 µM.
In the case of `COc1ccc(OC)c(N2C(=O)/C(=C/c3ccco3)C(=O)NC2=S)c1`, the IC50 was 58.5 µM. Further, the IC50 under setting [1] was 52.8 µM.
Take `CC1(C)CC(=O)C2=C(C1)c1c(ccc3ccccc13)NC2c1cc([N+](=O)[O-])cc([N+](=O)[O-])c1O` (stereo not drawn): the IC50 is 15.4 µM. The compound also had an IC50 under setting [1] of 35.6 µM.
On the same counts, the results for `CCS(=O)(=O)C1=NSC2=NC(=O)/C(=C\c3ccc(OS(=O)(=O)c4ccccc4)cc3)C(=N)N21` are > 100 µM (inactive) and greater than 100 µM.
The matching figures for `O=c1c(=Cc2cc([N+](=O)[O-])cc([N+](=O)[O-])c2O)sc2nc3ccccc3n12`: 52.1 µM and greater than 100 µM.
With `Cc1ccc(S(=O)(=O)Oc2ccc(/C=C3/C(=N)N4C(=NC3=O)SN=C4S(C)(=O)=O)cc2)cc1`, the IC50 is 78.5 µM. Besides, the IC50 under setting [1] is greater than 100 µM.
On the same counts, the results for `Cc1ccc(-n2cccc2/C=C2/C(=N)N3C(=NC2=O)SN=C3S(C)(=O)=O)cc1Cl` are 47.3 µM and 60.8 µM.
Turning to `O=C(O)c1cc(NN=Cc2ccc(-c3ccccc3)cc2)ccc1Cl`, the IC50 is 94 µM. The same compound yielded an IC50 under setting [1] greater than 100 µM.
As to `COc1cc(C=NNc2ccc(Cl)c(C(=O)O)c2)ccc1OC(=O)c1ccccc1F`, the IC50 is > 100 µM (inactive). Also, the IC50 under setting [1] was greater than 100 µM.
The matching figures for `O=C(O)c1ccccc1C(=O)N(Cc1cccc(Oc2ccc(Cl)cc2)c1)[C@H]1CCCc2ccccc21`: 16.2 µM and 38.2 µM.
